# Measurements from patent publication US9382204B2, “Inhibitors targeting the DNA-binding domain of human STAT3 for treatment of metastatic cancers” (Indiana University Research and Technology Corporation, priority 2013, dated 2016).
# Key:
# STAT3 [1] = assay: ChIP assay of STAT3 bound to cyclin D1 promoter; format: cell-based, human
# Protocol: ChIP was performed as previously described. Briefly, H1299 cells were treated with 1% formaldehyde for 10 min and lysates of the cells were sonicated to shear DNA to lengths between 200 and 1000 bases, which were then subjected to ChIP using Chromatin Immunoprecipitation Assay Kit (EMD Millipore, Billerica, Mass.) and normal IgG or STAT3 specific antibody (Santa Cruz) according to manufacturer's instructions. The primers for PCR of cyclin D1 promoter are 5′-[…]-3′ SEQ ID NO: 23 (forward) and 5′-[…]-3′ SED ID NO: 24 (reverse).
# IMR90 and MCF10A1 cells = assay: Cytotoxicity sulphorhodamine (SRB) assay, non-cancerous cells
# Protocol: (§1) FIG. 7. […] (A) Level of STAT3 expression and activation. […] Actin was used as a loading control. (B-C) Cytotoxicity assay. […] IC50 of inS3-54 for each cell line was derived using PrismPad program. (D) Apoptosis assay.
# (§2) Cytotoxicity of inS3-54 was determined using sulphorhodamine colorimetric assay as described previously (41). Photometric enzyme immunoassay using Cell Death Detection ELISA Plus kit (Roche Diagnostics, Indianapolis, Ind.) was performed for quantitative in-vitro determination of cytoplasmic histone-associated DNA fragments and apoptosis as we previously described.
# (§3) Survival, apoptosis, migration, and invasion assays were performed as previously described. Briefly, effect of STAT3 inhibitors on cell survival were analyzed using sulforhodamine B (SRB) assay. Apoptosis induced by STAT3 inhibitors cells were quantified using Cell Death Detection ELISA^PLUS Kit (Roche, Mannheim, Germany) by enzyme-linked immunosorbent assay (ELISA) according to manufacturer's instructions. Wound filling assay was performed by culturing 1×10^5 cells/well in 6-well plates, followed by generating a wound using a pipet tip and continuous culture with photographic recording at different times.
# [2] = mouse, in vivo
# A549 cells = assay: Mouse xenograft model of A549 cells; format: in vivo, NOD/SCID mice
# Protocol: For efficacy study. 5×10^6 A549 cells were injected subcutaneously in the flanks of 12 NOD/SCID mice. When the tumor volume reached about 50.0 mm^3, the mice were randomized into two different groups (6/group) with one treated by formulation vehicle control (Pharmatek Laboratories, San Diego, Calif.) and the other by A18 at 200 mg/kg with oral dosing every two days for four weeks. One mouse in each group died during the study and was eliminated. Tumor volume and body weight were measured twice a week. On the 35th day after implant, mice were euthanized and the tumor tissues were harvested and weighed. Necropsy was also performed to determine the changes in heart, lungs, kidneys, liver and spleen. To evaluate the histological alternation, metastasis in the lung and the expression of STAT3 and its downstream proteins, paraffin-embedded tissue sections were stained with ematoxylin and eosin (H&E) and/or used for immunohistochemistry analysis.
# [3] = system: A549 and MDA-MB-231 cells; assay: Luminescence-based glutathione alkylation assay (GSH-Glo); format: cell-based, human; settings: 20 μM inS3-54 48 hours, 15 mM iodoacetamide 30 minutes
# Description: FIG. 5. Effect of inS3-54 glutathione level. […] (***p<0.001).
# To further eliminate the possibility that inS3-54 has alkylating activity, we performed luminescence-based glutathione alkylation assay.
# [4] = Cytotoxicity sulphorhodamine (SRB) assay, non-cancerous cells; settings: human, IMR90 lung fibroblast and MCF10A1 mammary epithelial cells
# Protocol: as §1, §2, §3
# STAT3 [5] = assay: STAT3-dependent luciferase reporter assay in transiently transfected H1299 cells; format: cell-based, human; settings: newly synthesized compound
# Description: FIG. 1. Schematic diagram and identification of inS3-54 by virtual screening. (A) DNA-STAT3 complex structure (PDB code: 1BG1). […] (B) Luciferase activity assay of MDA-MB-231 cells stably transfected with STAT3-dependent luciferase reporter. (C) Structure of inS3-54. (D) Luciferase activity assay of H1299 cells transiently transfected with STAT3-dependent luciferase reporter. (E) Simulated average complex structure of inS3-54 in the DBD of STAT3. (F & G) Molecular surface of STAT3 (F) and STAT1 (G) complexed with inS3-54 from MD simulation with orientation shown in gold for STAT3 and pink for STAT1. Molecular surface is colored with gray for carbon, blue for nitrogen, red for oxygen and yellow for sulfur. (**p<0.01).
# To confirm the activity of the compound using re-supplied material, to eliminate the potential issues associated with the use of a single stable clone harboring the luciferase reporter gene, and to test if inS3-54 is cell line specific, we tested newly synthesized inS3-54 using H1299 cells transiently transfected with the STAT3-driven luciferase reporter plasmid. […] Thus, the activity of inS3-54 is not derived from potential contamination in the original supply and it is not dependent on cell line specific or transfection method used.
# STAT3 [6] = assay: STAT3 dimerization (STAT3c non-reducing PAGE, HA/FLAG co-immunoprecipitation) in H1299 cells; format: cell-based, human; settings: 20 μM
# Description: To eliminate the possibility that inS3-54 works by off-targeting to the SH2 domain, we tested if inS3-54 inhibits STAT3 dimerization using FLAG-STAT3c, which forms spontaneous homo-dimers via formation of intermolecular disulfide bond.
# However, inS3-54 had no effect on production of dimeric STAT3c separated using non-reducing SDS-PAGE or non-denaturing PAGE (FIG. 6B) while S3I-201, a STAT3 inhibitor that binds to the SH2 domain, inhibited STAT3c dimerization (FIG. 6B). To confirm this observation, we performed a co-immunoprecipitation analysis of HA and FLAG-tagged STAT3.
# MDA-MB-468 = assay: PARP cleavage in MDA-MB-468 cells; format: cell-based, human; settings: 72-hour treatment, data not shown
# [7] = system: hematopoietic progenitor cells from STAT3−/− mice; assay: Hematopoietic progenitor cell colony formation assay, STAT3−/− mice; format: cell-based, mouse; settings: 20 μM
# Protocol: Hematopoietic progenitor cell colony formation assay was performed as previously described. Briefly, 5×10^4 STAT3^+/+ and STAT3^−/− mouse (C57BL/6) bone marrow cells were stimulated in vitro with 1 U/ml recombinant human erythropoietin, 50 ng/ml recombinant mouse stem cell factor and 5% vol/vol pokeweed mitogen mouse spleen cell conditioned medium, and 0.1 mM hemin in the presence of either IMDM medium, IMDM medium plus inS3-54 analogues or DMSO vehicle control. Colonies were scored seven days after incubation at 37° C. with 5% CO2 and lowered (5%) 02.
# [8] = 200 mg/kg oral, every two days for four weeks
compound,measurement,setting,value
O=C1C(=Cc2ccc(Cl)cc2)C=C(c2ccccc2)N1c1ccc(O)cc1 [Compound A18],STAT3 binding to the promoter of cyclin D1 gene (ChIP),STAT3 [1],eliminated
same,cytotoxicity to noncancerous cells,IMR90 and MCF10A1 cells,little cytotoxicity
same,dose tolerated by mice,[2],up to 200 mg/kg
same,final tumor weight compared to control-treated group,A549 cells; [8],significantly less
same,mouse body weight,A549 cells; [8],no significant effect
same,weight of other organs,A549 cells; [8],no difference
same,xenograft tumor growth compared to vehicle control,A549 cells; [8],significantly reduced
same,lung metastasis,A549 cells; H&E staining and histology,None of the A18-treated mice has any signs of lung metastasis
same,expression of survivin and VEGF in xenograft tumors,A549 cells; immunohistochemistry,reduced
"O=C(O)c1ccc(N2C(=O)/C(=C/c3ccc([N+](=O)[O-])cc3)C=C2c2ccccc2)cc1 [inS3-54, 4-[(3E)-3-[(4-nitrophenyl)-methylidene]-2-oxo-5-phenylpyrrol-1-yl]benzoic acid]",glutathione level,[3],did not significantly reduce
same,IC50 at 72 h,[4],10 to 12 µM
same,STAT3-dependent luciferase reporter expression,STAT3 [5],significantly inhibits
same,production of dimeric STAT3c,"STAT3 [6]; 24 hrs, non-reducing SDS-PAGE or non-denaturing PAGE",had no effect
same,co-immunoprecipitation between HA- and FLAG-tagged STAT3,STAT3 [6]; H1299 cells,had no effect
same,cleavage of PARP,MDA-MB-468,induced cleavage of PARP
same,colony formation of hematopoietic progenitor cells from STAT3−/− mice,[7],further reduced
CC(=O)Nc1ccc(N2C(=O)C(=Cc3ccc(Cl)cc3)C=C2c2ccccc2)cc1 [Compound A26],cytotoxicity to lung fibroblast,IMR90 and MCF10A1 cells,high level cytotoxicity
same,IC50,"IMR90 and MCF10A1 cells; read-out: IC50, noncancerous lung fibroblast, lung fibroblast (IMR90)",4 µM
